{"source": "patent US20230031406A1", "about": "“COMPOUNDS AND COMPOSITIONS FOR TREATING CONDITIONS ASSOCIATED WITH NLRP ACTIVITY” (Novartis AG, priority 2018, published 2023)", "data": [{"tested_on": "PMA-differentiated THP-1 cells", "assay": "IL-1β production in PMA-differentiated THP-1 cells stimulated with gramicidin (hTHP-1 assay containing 2% fetal bovine serum; Procedures 1 and 2)", "type": "cell-based, human", "settings": "Homo sapiens, THP-1, Table B2; 2% fetal bovine serum; class symbols; read-out: hTHP-1 IC50", "procedure,_shortened": "(§1)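 PMA 20 ng/ml 16-18 h → trypsinise → 50,000 cells/well, RPMI/2% FBS; cpd 1 h (11-pt, 100–0.0017 μM; DMSO 0.37%); gramicidin 5 μM, 2 h; spin; supernatant IL-1β via HTRF.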", "units": {"IC50": "µM"}, "values": [{"smiles": "CC(C)(O)c1cccc(S(N)(=O)=NC(=O)Nc2c3c(nc4c2CCC4)CCC3)c1", "note": "(single isomer, unassigned) [Compound 625b, (R) or (S)-N′-((1,2,3,5,6,7-hexahydrodicyclopenta [b,e]pyridin-8-yl)carbamoyl)-3-(2-hydroxypropan-2-yl)benzene-sulfonimidamide]", "IC50": "1 to 5"}, {"smiles": "Cc1c(C(F)(F)F)nc2c(c1NC(=O)N=S(N)(=O)c1ccn(C(C)C)n1)CCC2", "note": "(single isomer, unassigned) [Compound 628b, (R) or (S)-1-Isopropyl-N′-((3-methyl-2-(trifluoromethyl)-6,7-dihydro-5H-cyclopenta[b]pyridin-4-yl)carbamoyl)-1H-pyrazole-3-sulfonimidamide]", "IC50": "0.2 to 1"}, {"smiles": "CC(C)(O)c1ccc(S(N)(=O)=NC(=O)Nc2c3c(nc4c2CCC4)CCC3)cc1", "note": "(single isomer, unassigned) [Compound 633b, (R) or (S)-N′-((1,2,3,5,6,7-hexahydrodicyclopenta [b,e]pyridin-8-yl)carbamoyl)-4-(2-hydroxypropan-2-yl)benzene-sulfonimidamide]", "IC50": "5 to 30"}, {"smiles": "CC1(C)CCc2c1nc1c(c2NC(=O)N=S(N)(=O)c2cnn(C(F)F)c2)CCC1", "note": "(single isomer, unassigned) [Compound 637b, (S) or (R)-1-(Difluoromethyl)-N′-((3,3-dimethyl-1,2,3,5,6,7-hexahydrodicyclopenta [b,e]pyridin-8-yl)carbamoyl)-1H-pyrazole-4-sulfonimidamide]", "IC50": "1 to 5"}, {"smiles": "NS(=O)(=NC(=O)Nc1c2c(nc3c1CCC31CC1)CCC2)c1cnn(C(F)F)c1", "note": "(single isomer, unassigned) [Compound 638a, (R) or (S)-1-(Difluoromethyl)-N′-((1′,5′,6′,7′-tetrahydro-2′H-spiro[cyclopropane-1,3′-dicyclopenta[b,e]pyridin]-8′-yl)carbamoyl)-1H-pyrazole-4-sulfonimidamide]", "IC50": "1 to 5"}, {"smiles": "C[C@@H]1CCc2c1nc1c(c2NC(=O)N=S(N)(=O)c2ccn(C)n2)CCC1", "note": "(single isomer, unassigned) [Compound 639b, (R) or (S)-1-Methyl-N′-(((R)-3-methyl-1,2,3,5,6,7-hexahydrodicyclopenta [b,e]pyridin-8-yl)carbamoyl)-1H-pyrazole-3-sulfonimidamide]", "IC50": "0.2 to 1"}]}, {"tested_on": "PMA-differentiated THP-1 cells", "assay": "IL-1β production in PMA-differentiated THP-1 cells stimulated with gramicidin (hTHP-1 assay containing 2% fetal bovine serum; Procedures 1 and 2)", "type": "cell-based, human", "settings": "Homo sapiens, THP-1, Table B2; 2% fetal bovine serum; numeric bounds; read-out: hTHP-1 IC50", "procedure,_shortened": "as §1", "units": {"IC50": "µM"}, "values": [{"smiles": "CC(C)(O)c1cccc(S(N)(=O)=NC(=O)Nc2c3c(nc4c2CCC4)CCC3)c1", "note": "(single isomer, unassigned) [Compound 625a, (S) or (R)-N′-((1,2,3,5,6,7-hexahydrodicyclopenta [b,e]pyridin-8-yl)carbamoyl)-3-(2-hydroxypropan-2-yl)benzene-sulfonimidamide]", "IC50": "> 30"}, {"smiles": "Cc1c(C(F)(F)F)nc2c(c1NC(=O)N=S(N)(=O)c1ccn(C(C)C)n1)CCC2", "note": "(single isomer, unassigned) [Compound 628a, (S) or (R)-1-Isopropyl-N′-((3-methyl-2-(trifluoromethyl)-6,7-dihydro-5H-cyclopenta[b]pyridin-4-yl)carbamoyl)-1H-pyrazole-3-sulfonimidamide]", "IC50": "> 30"}, {"smiles": "CC(C)(O)c1ccc(S(N)(=O)=NC(=O)Nc2c3c(nc4c2CCC4)CCC3)cc1", "note": "(single isomer, unassigned) [Compound 633a, (S) or (R)-N′-((1,2,3,5,6,7-hexahydrodicyclopenta [b,e]pyridin-8-yl)carbamoyl)-4-(2-hydroxypropan-2-yl)benzene-sulfonimidamide]", "IC50": "> 30"}, {"smiles": "CC1(C)CCc2c1nc1c(c2NC(=O)N=S(N)(=O)c2cnn(C(F)F)c2)CCC1", "note": "(single isomer, unassigned) [Compound 637b, (S) or (R)-1-(Difluoromethyl)-N′-((3,3-dimethyl-1,2,3,5,6,7-hexahydrodicyclopenta [b,e]pyridin-8-yl)carbamoyl)-1H-pyrazole-4-sulfonimidamide]", "IC50": "> 30"}, {"smiles": "NS(=O)(=NC(=O)Nc1c2c(nc3c1CCC31CC1)CCC2)c1cnn(C(F)F)c1", "note": "(single isomer, unassigned) [Compound 638b, (S) or (R)-1-(Difluoromethyl)-N′-((1′,5′,6′,7′-tetrahydro-2′H-spiro[cyclopropane-1,3′-dicyclopenta[b,e]pyridin]-8′-yl)carbamoyl)-1H-pyrazole-4-sulfonimidamide]", "IC50": "> 30"}, {"smiles": "C[C@@H]1CCc2c1nc1c(c2NC(=O)N=S(N)(=O)c2ccn(C)n2)CCC1", "note": "(single isomer, unassigned) [Compound 639a, (S) or (R)-1-Methyl-N′-(((R)-3-methyl-1,2,3,5,6,7-hexahydrodicyclopenta [b,e]pyridin-8-yl)carbamoyl)-1H-pyrazole-3-sulfonimidamide]", "IC50": "> 30"}]}, {"tested_on": "PMA-differentiated THP-1 cells", "assay": "IL-1β production in PMA-differentiated THP-1 cells stimulated with gramicidin (hTHP-1 assay containing 2% fetal bovine serum; Procedures 1 and 2)", "type": "cell-based, human", "settings": "Table B2; 2% fetal bovine serum; class symbols; read-out: hTHP-1 IC50", "procedure,_shortened": "as §1", "units": {"IC50": "µM"}, "values": [{"smiles": "Cc1c(C(F)(F)F)nc2c(c1NC(=O)N=S(N)(=O)c1cc(C(C)(C)O)cs1)CCC2", "note": "(single isomer, unassigned) [Compound 624b, (R) or (S)-4-(2-Hydroxypropan-2-yl)-N′-((3-methyl-2-(trifluoromethyl)-6,7-dihydro-5H-cyclopenta[b]pyridin-4-yl)carbamoyl) thiophene-2-sulfonimidamide]", "IC50": "0.04 to 0.2"}, {"smiles": "Cc1c(C2CC2)nc2c(c1NC(=O)N=S(N)(=O)c1nc(C(C)(C)O)cs1)CCC2", "note": "(single isomer, unassigned) [Compound 626a]", "IC50": "5 to 30"}, {"smiles": "Cc1c(C2CC2)nc2c(c1NC(=O)N=S(N)(=O)c1nc(C(C)(C)O)cs1)CCC2", "note": "(single isomer, unassigned) [Compound 626b, (R) or (S)-N′-((2-cyclopropyl-3-methyl-6,7-dihydro-5H-cyclopenta[b]pyridin-4-yl)carbamoyl)-4-(2-hydroxypropan-2-yl)thiazole-2-sulfonimidamide]", "IC50": "0.04 to 0.2"}, {"smiles": "CCc1nc2c(c(NC(=O)N=S(N)(=O)c3cnc(C(C)(C)O)s3)c1C1CC1)CCC2", "note": "(single isomer, unassigned) [Compound 630a, (S) or (R)-N′-((3-cyclopropyl-2-ethyl-6,7-dihydro-5H-cyclopenta[b]pyridin-4-yl)carbamoyl)-2-(2-hydroxypropan-2-yl)thiazole-5-sulfonimidamide]", "IC50": "5 to 30"}, {"smiles": "CCc1nc2c(c(NC(=O)N=S(N)(=O)c3cnc(C(C)(C)O)s3)c1C1CC1)CCC2", "note": "(single isomer, unassigned) [Compound 630b, (R) or (S)-N′-((3-cyclopropyl-2-ethyl-6,7-dihydro-5H-cyclopenta[b]pyridin-4-yl)carbamoyl)-2-(2-hydroxypropan-2-yl)thiazole-5-sulfonimidamide]", "IC50": "0.2 to 1"}, {"smiles": "CCc1nc2c(c(NC(=O)N=S(N)(=O)c3sc(C(C)(C)O)cc3F)c1C1CC1)CCC2", "note": "(single isomer, unassigned) [Compound 631a, (S) or (R)-N′-((3-cyclopropyl-2-ethyl-6,7-dihydro-5H-cyclopenta[b]pyridin-4-yl)carbamoyl)-3-fluoro-5-(2-hydroxypropan-2-yl)thiophene-2-sulfonimidamide]", "IC50": "5 to 30"}, {"smiles": "CCc1nc2c(c(NC(=O)N=S(N)(=O)c3sc(C(C)(C)O)cc3F)c1C1CC1)CCC2", "note": "(single isomer, unassigned) [Compound 631b, (R) or (S)-N′-((3-cyclopropyl-2-ethyl-6,7-dihydro-5H-cyclopenta[b]pyridin-4-yl)carbamoyl)-3-fluoro-5-(2-hydroxypropan-2-yl)thiophene-2-sulfonimidamide]", "IC50": "0.04 to 0.2"}, {"smiles": "Cc1c(C(F)(F)F)nc2c(c1NC(=O)N=S(N)(=O)c1sc(C(C)(C)O)cc1F)CCC2", "note": "(single isomer, unassigned) [Compound 632a, (R) or (S)-3-Fluoro-5-(2-hydroxypropan-2-yl)-N′-((3-methyl-2-(trifluoromethyl)-6,7-dihydro-5H-cyclopenta[b]pyridin-4-yl)carbamoyl) thiophene-2-sulfonimidamide]", "IC50": "0.04 to 0.2"}, {"smiles": "Cc1c(C(F)(F)F)nc2c(c1NC(=O)N=S(N)(=O)c1sc(C(C)(C)O)cc1F)CCC2", "note": "(single isomer, unassigned) [Compound 632b, (S) or (R)-3-Fluoro-5-(2-hydroxypropan-2-yl)-N′-((3-methyl-2-(trifluoromethyl)-6,7-dihydro-5H-cyclopenta[b]pyridin-4-yl)carbamoyl) thiophene-2-sulfonimidamide]", "IC50": "5 to 30"}, {"smiles": "CCn1ccc(S(N)(=O)=NC(=O)Nc2c3c(nc4c2CC[C@H]4C)CCC3)n1", "note": "(single isomer, unassigned) [Compound 634a, (S) or (R)-1-Ethyl-N′-(((R)-3-methyl-1,2,3,5,6,7-hexahydrodicyclopenta [b,e]pyridin-8-yl)carbamoyl)-1H-pyrazole-3-sulfonimidamide]", "IC50": "5 to 30"}, {"smiles": "CCn1ccc(S(N)(=O)=NC(=O)Nc2c3c(nc4c2CC[C@H]4C)CCC3)n1", "note": "(single isomer, unassigned) [Compound 634b, (R) or (S)-1-Ethyl-N′-(((R)-3-methyl-1,2,3,5,6,7-hexahydrodicyclopenta [b,e]pyridin-8-yl)carbamoyl)-1H-pyrazole-3-sulfonimidamide]", "IC50": "0.04 to 0.2"}, {"smiles": "C[C@@H]1CCc2c1nc1c(c2NC(=O)N=S(N)(=O)c2sc(CN(C)C)cc2F)CCC1", "note": "(single isomer, unassigned) [Compound 636a, (S) or (R)-5-((Dimethylamino)methyl)-3-fluoro-N′-(((R)-3-methyl-1,2,3,5,6,7-hexahydrodicyclopenta [b,e]pyridin-8-yl)carbamoyl) thiophene-2-sulfonimidamide]", "IC50": "5 to 30"}, {"smiles": "C[C@@H]1CCc2c1nc1c(c2NC(=O)N=S(N)(=O)c2sc(CN(C)C)cc2F)CCC1", "note": "(single isomer, unassigned) [Compound 636b, (R) or (S)-5-((Dimethylamino)methyl)-3-fluoro-N′-(((R)-3-methyl-1,2,3,5,6,7-hexahydrodicyclopenta [b,e]pyridin-8-yl)carbamoyl) thiophene-2-sulfonimidamide]", "IC50": "0.04 to 0.2"}, {"smiles": "CC1(C)CCc2c1nc1c(c2NC(=O)N=S(N)(=O)c2sc(C(C)(O)CO)cc2F)CCC1", "note": "(single isomer, unassigned) [Compound 640a, (R, R) and (S, R) or (R, S) and (S, S)-5-(1,2-Dihydroxypropan-2-yl)-N′-((3,3-dimethyl-1,2,3,5,6,7-hexahydrodicyclopenta [b,e]pyridin-8-yl)carbamoyl)-3-fluorotliophene-2-sulfonimidamide]", "IC50": "0.008 to 0.04"}]}]}
